Entries after “also recorded” stand apart in the source; their conditions may differ.

These results are taken from patent US10828300B2, “Substituted 2,4-diaminopyrimidines as kinase inhibitors” (Celgene CAR LLC, priority 2008, dated 2020).

In experiment [1] the target is T1, BTK (Homo sapiens (Human), UniProt Q06187). Nature of the experiment: Washout experiment with Ramos cells (PLCγ2 phosphorylation). The experiment is classed as cell-based. Conditions: Ramos washout assay, 100 nM compound for 1 hour. As to the method:
Washout Experiment with Ramos Cells
Ramos cells were serum starved for one hour in RPMI media +1% glutamine at 37° C. After starvation, Ramos cells were treated with 100 nM compound diluted in serum free RPMI media for 1 hour. After compound treatment, the media was removed and cells were washed with compound-free media. Subsequently, Ramos cells were washed every 2 hours and resuspended in fresh compound-free media. Cells were collected at specified timepoints, treated with 1 ug anti-human IgM (Southern Biotech cat #2022-01) for 10 minutes on ice to induce BCR signaling and then washed in PBS. Ramos cells were then lysed in Cell Extraction Buffer (Invitrogen FNN0011) supplemented with Roche complete protease inhibitor tablets (Roche 11697498001) and phosphatase inhibitors (Roche 04 906 837 001) and 18 ug total protein lysate was loaded in each lane. Inhibition of BTK kinase activity was assayed by measuring its substrate (PLCγ2) phosphorylation by western blot with phospho-specific antibodies from Cell Signaling Technologies cat#3871. The results of this experiment with compounds I-2, I-4 and I-7 are depicted in FIGS. 1, 2 and 3.

Experiment [2] concerns the target TEC kinase (Homo sapiens (Human), UniProt P42680). Nature of the experiment: Mass spectrometry for TEC kinase (tryptic digest). The experiment is classed as binding, Homo sapien. As to conditions: 3 hrs at 10× excess, peptide GCLLNFLR
On the procedure:
Mass Spectrometry for TEC Kinase (Compound I-2)
TEC kinase (45 pmols; Invitrogen) was incubated with (I-2) (450 pmols) for 3 hrs at 10× excess prior to tryptic digestion. Iodoacetamide was used as the alkylating agent after compound incubation. […] For tryptic digests a 5 ul aliquot (7.5 pmols) was diluted with 15 ul of 0.1% TFA prior to micro C18 Zip Tipping directly onto the MALDI target using alpha cyano-4-hydroxy cinnamic acid as the matrix (5 mg/ml in 0.1% TFA:Acetonitrile 50:50).
(§1) For tryptic digests the instrument was set in Reflectron mode with a pulsed extraction setting of 2200. Calibration was done using the Laser Biolabs Pep Mix standard ([…], 1296.69, 1672.92, 2093.09, 2465.20). For CID/PSD analysis the peptide was selected using cursors to set ion gate timing and fragmentation occurred at a laser power about 20% higher and He was used as the collision gas for CID. Calibration for fragments was done using the P14R fragmentation calibration for the Curved field Reflectron.
Mass Spectrometry for TEC Kinase (Compound I-4)
TEC kinase (45 pmols; Invitrogen) was incubated with (I-4) (450 pmols) for 3 hrs at 10× excess prior to tryptic digestion. Iodoacetamide was used as the alkylating agent after compound incubation. […] For tryptic digests a 5 ul aliquot (7.5 pmols) was diluted with 15 ul of 0.1% TFA prior to micro C18 Zip Tipping directly onto the MALDI target using alpha cyano-4-hydroxy cinnamic acid as the matrix (5 mg/ml in 0.1% TFA:Acetonitrile 50:50).
For tryptic digests the instrument was set in Reflectron mode with a pulsed extraction setting of 1800. Calibration was done using the Laser Biolabs Pep Mix standard ([…], 1296.69, 1672.92, 2093.09, 2465.20). For CID/PSD analysis the peptide was selected using cursors to set ion gate timing and fragmentation occurred at a laser power about 20% higher and He was used as the collision gas for CID. Calibration for fragments was done using the P14R fragmentation calibration for the Curved field Reflectron.
Mass Spectrometry for TEC Kinase (Compound I-7) […]

The target of experiment [3] is Erbb4 kinase domain (Homo sapiens (Human), UniProt Q15303). Nature of the experiment: Mass spectrometry for ERBB4 (intact protein). The experiment is classed as binding. As to conditions: 60 minutes at 10-fold excess of compound. On the procedure: Mass Spectrometry for ERBB4
Chain of Erbb4 kinase domain (Q15303 718-985): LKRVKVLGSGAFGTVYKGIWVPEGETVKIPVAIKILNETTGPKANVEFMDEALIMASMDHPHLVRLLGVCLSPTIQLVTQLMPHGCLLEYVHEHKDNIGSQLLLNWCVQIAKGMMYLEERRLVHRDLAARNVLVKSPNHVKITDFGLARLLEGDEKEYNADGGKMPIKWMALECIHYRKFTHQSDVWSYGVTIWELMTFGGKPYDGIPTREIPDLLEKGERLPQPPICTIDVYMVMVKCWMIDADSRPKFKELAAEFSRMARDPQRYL
Erbb4 kinase domain (Upstate) was incubated with compound for 60 minutes at 10-fold excess of compound I-4 and I-11 to protein. 1 μl aliquots of the samples (total volume of 4.24 ul) were diluted with 10 μl of 0.1% TFA prior to micro C4 ZipTipping directly onto the MALDI target using Sinapinic acid as the desorption matrix (10 mg/ml in 0.1% TFA:Acetonitrile 50:50). For intact protein mass measurement the instrument was set in Linear mode using a pulsed extraction setting of 16,952 for the myoglobin standard used to calibrate the instrument (Shimadzu Axima TOF^2).
Intact ErbB4 protein occurs at MH+ of 35850 with corresponding sinapinic (matrix) adducts occurring about 200 Da higher. A stochiometric incorporation of the test compound (I-4 and I-11) (Mw of 410 Da) produced a new mass peak which is approximately 410 Da higher (MH+ of 36260).

The target in experiment [4] is T1, BTK. Nature of the experiment: Mass spectrometry for BTK (intact protein, covalent modification). The experiment is classed as binding. As to the method: Mass Spectrometry for BTK
Intact BTK was incubated for 1 hr at a 10× fold excess of I-7 to protein. Aliquots (2 μl) of the samples were diluted with 10 μl of 0.1% TFA prior to micro C4 ZipTipping directly onto the MALDI target using Sinapinic acid as the desorption matrix (10 mg/ml in 0.1% TFA:Acetonitrile 20:80).

For experiment [5], the target named is JAK3 kinase (Homo sapiens (Human), UniProt P52333). Nature of the experiment: Mass spectrometry for Janus-3 kinase (JAK3), tryptic digest. The experiment is classed as binding, homosapien. As to conditions: 3 hrs at 10× excess, peptide LVMEYLPSGCLR
Chain of JAK3 kinase (P52333 whole entry): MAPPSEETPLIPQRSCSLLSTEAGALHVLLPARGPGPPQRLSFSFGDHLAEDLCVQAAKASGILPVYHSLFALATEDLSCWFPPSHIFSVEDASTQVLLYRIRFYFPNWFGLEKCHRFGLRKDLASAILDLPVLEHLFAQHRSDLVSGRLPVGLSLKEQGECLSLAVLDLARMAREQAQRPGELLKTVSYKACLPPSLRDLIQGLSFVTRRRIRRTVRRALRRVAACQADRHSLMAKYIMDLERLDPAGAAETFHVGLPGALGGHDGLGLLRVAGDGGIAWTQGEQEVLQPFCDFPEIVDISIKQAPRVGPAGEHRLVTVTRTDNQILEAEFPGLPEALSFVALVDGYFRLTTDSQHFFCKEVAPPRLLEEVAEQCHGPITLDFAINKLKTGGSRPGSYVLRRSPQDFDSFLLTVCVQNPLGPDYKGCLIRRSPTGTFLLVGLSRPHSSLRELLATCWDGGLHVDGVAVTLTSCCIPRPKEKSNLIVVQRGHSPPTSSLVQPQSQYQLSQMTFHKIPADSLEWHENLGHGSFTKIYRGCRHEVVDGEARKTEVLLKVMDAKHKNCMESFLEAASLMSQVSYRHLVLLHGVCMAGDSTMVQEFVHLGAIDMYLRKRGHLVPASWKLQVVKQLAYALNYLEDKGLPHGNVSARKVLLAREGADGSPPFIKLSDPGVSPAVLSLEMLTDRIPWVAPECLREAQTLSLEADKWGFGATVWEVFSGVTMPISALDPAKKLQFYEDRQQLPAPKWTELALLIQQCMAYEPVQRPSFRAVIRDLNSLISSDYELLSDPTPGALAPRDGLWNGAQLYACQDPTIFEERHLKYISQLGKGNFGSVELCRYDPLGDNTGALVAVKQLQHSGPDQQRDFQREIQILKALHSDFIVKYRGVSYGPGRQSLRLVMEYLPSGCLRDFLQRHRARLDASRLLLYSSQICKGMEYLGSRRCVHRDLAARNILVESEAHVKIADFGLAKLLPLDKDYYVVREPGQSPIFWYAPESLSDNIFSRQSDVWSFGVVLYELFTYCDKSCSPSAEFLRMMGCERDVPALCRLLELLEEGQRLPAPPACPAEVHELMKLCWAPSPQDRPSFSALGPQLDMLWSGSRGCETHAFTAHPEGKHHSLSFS
As to the method: Mass Spectrometry for Janus-3 Kinase (JAK3)
JAK3 kinase (33 pmols; Invitrogen) was incubated with (I-7) (327 pmols) for 3 hrs at 10× excess prior to tryptic digestion. Iodoacetamide was used as the alkylating agent after compound incubation. For tryptic digests a 5 ul aliquot (5.5 pmols) was diluted with 15 ul of 0.1% TFA prior to micro C18 Zip Tipping directly onto the MALDI target using alpha cyano-4-hydroxy cinnamic acid as the matrix (5 mg/ml in 0.1% TFA:Acetonitrile 50:50).
as §1

For experiment [6], the target named is T1, BTK. Nature of the experiment: Washout experiment with I-7 and probe compound I-215 in Ramos cells. The experiment is classed as cell-based. Conditions: 0.1 μM for 1 hour, then washout, probe I-215. On the procedure: Washout Experiment with I-7 and Probe Compound I-215
Ramos cells were incubated with 0.1 μM I-7 or a reversible BTK inhibitor control compound in serum free media for 1 hour at 37° C. The cells were then washed in compound-free media and lysed 0, 4, 6, or 8 hours after compound removal. Cell lysates were incubated with 1 μM I-215 for 1 hour at room temperature, then overnight at 4° C. with streptavidin-coupled agarose beads. Protein was boiled off the beads and BTK association was assessed by western blot. […] In contrast, with the reversible inhibitor control, 45% of BTK protein is unbound and available to the probe at 0 hours and by 4 hours 100% of BTK protein is unbound and available to bind the probe. All samples were normalized to the DMSO-treated cells harvested at 0 hours.

The target in experiment [7] is T1, BTK. Nature of the experiment: BTK occupancy from in vitro samples by ELISA (Ramos cells, probe I-215). The experiment is classed as cell-based. Conditions: probe I-215 ELISA. The source says:
Measuring BTK occupancy from in vitro samples by ELISA
In order to determine the amount of free BTK in cell or tissue lysates, an ELISA protocol was employed that utilizes a biotinylated probe compound that binds only to free, unoccupied BTK. The conjugated biotin is captured on a streptavidin-coated ELISA plate and detected with a mouse anti-BTK antibody (Becton Dickinson, Franklin Lakes, N.J., USA) and a secondary goat anti-mouse HRP antibody (Zymed, South San Francisco, Calif., USA).
All samples were prepared with equal concentrations of Biorad lysis buffer (Hercules, Calif., USA), 0.5% bovine serum albumin in PBS with 0.05% Tween-20 to give a final concentration of 1 μM I-215. Samples were incubated in a mixing plate for 1 hr at room temperature while shaking to allow probe compound I-215 to bind to free BTK. After incubation with I-215, samples were added to a washed, streptavidin-coated ELISA plate (Pierce, Rockford, Ill., USA) and incubated for 1 hr at room temperature while shaking. The plate was then washed with PBS containing 0.05% Tween-20 using an automatic plate washer. Anti-BTK antibody was prepared at 1:1000 dilution in 0.5% BSA in PBS (0.05% Tween-20) and added to the ELISA plate. The plate was incubated for 1 hr at room temperature while shaking. The plate was washed as described above and the secondary HRP antibody was prepared at 1:5000 dilution in 0.5% BSA in PBS (0.05% Tween-20). The plate was incubated and washed as described above. TMB was added to the plate, and OD650 was monitored until reaching 1 OD unit. The reaction was then stopped with addition of H2SO4. The plate was analyzed using Gen 5 software, and a 4 Parameter Logistic curve was employed to quantitate samples. Recombinant BTK (Invitrogen, Carlsbad, Calif., USA) was used for the standard curve.
A concentration designated as “A” is greater than 1 nM; a concentration designated as “B” is greater than 10 nM; and a concentration designated as “C” is greater than 50 nM.
(In general: An ELISA detects its analyte on a solid surface through an enzyme-linked reagent.)

The target of experiment [8] is T1, BTK. Nature of the experiment: Omnia assay protocol for potency assessment against BTK. The experiment is classed as biochemical. The source says:
Omnia Assay Protocol for Potency Assessment Against BTK

The target in experiment [9] is T1, BTK. Nature of the experiment: BTK Ramos cellular assay (phosphorylation of BTK substrate PLCγ2). The experiment is classed as cell-based. Conditions: Ramos cells, anti-IgM stimulated, read-out: BTK Inhibition (BTK Ramos Cellular Inhibition Data). As to the method:
Ramos cells were grown in suspension in T225 flasks, spun down, resuspended in 50 ml serum-free media and incubated for 1 hour. […] Ramos cells were incubated with compound for 1 hour, washed again and resuspended in 100 ul serum-free media. Cells were then stimulated with 1 μg of goat F(ab′)2 Anti-Human IgM and incubated on ice for 10 minutes to activate B cell receptor signaling pathways. After 10 minutes, the cells were washed once with PBS and then lysed on ice with Invitrogen Cell Extraction buffer. 16 μg total protein from lysates were loaded on gel and blots were probed for phosphorylation of the BTK substrate PLCγ2.

The target in experiment [10] is ITK (Homo sapiens (Human), UniProt Q08881). Nature of the experiment: Omnia assay for potency assessment against active forms of ITK kinase. The experiment is classed as biochemical. As to conditions: [ITK]=10 nM, [ATP]=25 μM, [Y6-Sox]=10 μM; read-out: ITK Inhibition.
Chain of ITK (Q08881 whole entry): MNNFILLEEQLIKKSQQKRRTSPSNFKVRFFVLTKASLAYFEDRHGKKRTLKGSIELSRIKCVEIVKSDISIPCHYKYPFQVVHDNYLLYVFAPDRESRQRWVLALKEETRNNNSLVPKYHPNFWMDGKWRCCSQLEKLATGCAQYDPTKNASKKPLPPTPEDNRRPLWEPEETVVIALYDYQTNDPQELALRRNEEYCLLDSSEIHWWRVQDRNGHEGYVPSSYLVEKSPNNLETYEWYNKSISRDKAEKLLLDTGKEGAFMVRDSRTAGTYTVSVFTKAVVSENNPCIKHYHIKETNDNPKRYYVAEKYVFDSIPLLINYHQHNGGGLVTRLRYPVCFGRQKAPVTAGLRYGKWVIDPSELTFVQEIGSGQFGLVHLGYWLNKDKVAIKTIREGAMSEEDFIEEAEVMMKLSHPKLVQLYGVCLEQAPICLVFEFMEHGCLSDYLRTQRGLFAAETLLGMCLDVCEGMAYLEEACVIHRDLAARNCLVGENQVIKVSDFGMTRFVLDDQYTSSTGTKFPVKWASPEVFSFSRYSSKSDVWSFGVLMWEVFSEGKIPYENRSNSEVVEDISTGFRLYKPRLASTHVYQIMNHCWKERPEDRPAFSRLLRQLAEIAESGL
In experiment [11] the target is EGFR-WT (Homo sapiens (Human), UniProt P00533). Nature of the experiment: Omnia assay for potency assessment against EGFR (WT). The experiment is classed as biochemical. As to conditions: read-out: EGFR Wild Type Inhibition.
Chain of EGFR-WT (P00533 25-1210): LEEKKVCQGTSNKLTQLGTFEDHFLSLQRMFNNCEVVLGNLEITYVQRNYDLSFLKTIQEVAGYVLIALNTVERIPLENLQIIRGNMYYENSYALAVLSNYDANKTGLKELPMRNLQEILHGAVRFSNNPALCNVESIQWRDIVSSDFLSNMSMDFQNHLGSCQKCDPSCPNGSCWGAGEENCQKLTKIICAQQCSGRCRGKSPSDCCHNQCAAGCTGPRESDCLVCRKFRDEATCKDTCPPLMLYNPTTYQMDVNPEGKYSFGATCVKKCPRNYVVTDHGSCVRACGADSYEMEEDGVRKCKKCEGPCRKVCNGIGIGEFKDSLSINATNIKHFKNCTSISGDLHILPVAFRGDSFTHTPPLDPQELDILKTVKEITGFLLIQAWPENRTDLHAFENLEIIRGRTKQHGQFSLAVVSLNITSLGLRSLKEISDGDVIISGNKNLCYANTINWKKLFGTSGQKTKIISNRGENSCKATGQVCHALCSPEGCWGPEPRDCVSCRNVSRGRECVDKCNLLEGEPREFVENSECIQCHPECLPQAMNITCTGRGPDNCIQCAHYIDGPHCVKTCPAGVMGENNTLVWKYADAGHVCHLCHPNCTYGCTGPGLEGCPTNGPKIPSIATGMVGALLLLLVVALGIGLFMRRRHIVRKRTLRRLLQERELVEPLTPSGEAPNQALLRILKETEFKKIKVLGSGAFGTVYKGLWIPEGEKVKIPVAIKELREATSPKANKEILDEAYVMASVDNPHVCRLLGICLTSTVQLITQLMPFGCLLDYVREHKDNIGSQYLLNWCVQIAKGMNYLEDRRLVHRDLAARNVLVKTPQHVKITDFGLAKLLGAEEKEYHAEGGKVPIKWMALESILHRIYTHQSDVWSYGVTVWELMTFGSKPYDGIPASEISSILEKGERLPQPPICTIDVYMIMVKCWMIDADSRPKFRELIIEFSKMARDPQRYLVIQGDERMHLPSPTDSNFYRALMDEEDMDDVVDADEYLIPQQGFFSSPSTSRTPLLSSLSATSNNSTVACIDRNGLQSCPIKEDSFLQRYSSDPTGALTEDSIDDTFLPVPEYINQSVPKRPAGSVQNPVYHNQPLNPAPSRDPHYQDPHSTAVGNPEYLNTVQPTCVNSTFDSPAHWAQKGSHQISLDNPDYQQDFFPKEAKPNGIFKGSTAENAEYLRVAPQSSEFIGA

Chain of TEC kinase (P42680 whole entry): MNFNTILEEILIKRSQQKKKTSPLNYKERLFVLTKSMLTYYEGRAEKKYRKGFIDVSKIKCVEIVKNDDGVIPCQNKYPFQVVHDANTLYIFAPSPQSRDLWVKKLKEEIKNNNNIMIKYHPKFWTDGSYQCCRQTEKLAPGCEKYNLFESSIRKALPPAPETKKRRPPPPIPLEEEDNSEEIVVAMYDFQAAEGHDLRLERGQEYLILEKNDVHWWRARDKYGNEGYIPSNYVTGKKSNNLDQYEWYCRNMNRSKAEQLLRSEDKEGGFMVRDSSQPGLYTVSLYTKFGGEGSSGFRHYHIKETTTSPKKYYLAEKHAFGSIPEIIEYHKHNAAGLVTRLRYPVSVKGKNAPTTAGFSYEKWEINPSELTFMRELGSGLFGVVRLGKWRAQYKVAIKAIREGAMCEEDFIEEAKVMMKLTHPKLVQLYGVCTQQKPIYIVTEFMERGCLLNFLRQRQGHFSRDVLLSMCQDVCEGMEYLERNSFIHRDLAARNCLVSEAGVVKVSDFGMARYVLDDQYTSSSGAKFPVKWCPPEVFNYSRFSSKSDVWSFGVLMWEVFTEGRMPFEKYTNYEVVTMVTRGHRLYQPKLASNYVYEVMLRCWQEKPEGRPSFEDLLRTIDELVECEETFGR
T1 sequence (Q06187 whole entry): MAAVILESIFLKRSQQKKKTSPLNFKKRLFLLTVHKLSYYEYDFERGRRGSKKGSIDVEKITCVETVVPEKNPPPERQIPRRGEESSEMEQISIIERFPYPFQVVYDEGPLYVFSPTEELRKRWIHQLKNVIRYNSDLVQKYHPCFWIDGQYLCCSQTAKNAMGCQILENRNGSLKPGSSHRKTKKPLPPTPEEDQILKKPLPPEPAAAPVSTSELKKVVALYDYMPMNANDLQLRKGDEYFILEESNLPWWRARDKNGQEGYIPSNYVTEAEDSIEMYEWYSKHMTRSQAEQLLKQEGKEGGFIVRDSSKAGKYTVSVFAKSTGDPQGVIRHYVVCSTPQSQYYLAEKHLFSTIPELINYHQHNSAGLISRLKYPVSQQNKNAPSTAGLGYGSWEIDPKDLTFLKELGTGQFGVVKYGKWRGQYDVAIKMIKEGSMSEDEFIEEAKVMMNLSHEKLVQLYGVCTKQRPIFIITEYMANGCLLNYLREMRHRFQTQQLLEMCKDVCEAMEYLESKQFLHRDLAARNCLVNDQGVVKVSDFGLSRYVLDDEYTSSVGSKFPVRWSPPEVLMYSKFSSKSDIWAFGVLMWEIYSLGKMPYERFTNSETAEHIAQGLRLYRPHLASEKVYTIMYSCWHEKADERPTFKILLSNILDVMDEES

For `C=CC(=O)Nc1cccc(Nc2ncc(C)c(Nc3cccc(C)c3)n2)c1` [Compound I-2, N-(3-(5-methyl-4-(m-tolylamino)pyrimidin-2-ylamino)phenyl) acrylamide], in experiment [1], the “BTK Inhibition Type” value was “irreversible”. Also, the “covalent modification of TEC kinase by mass spectrometry” value (“covalent modification of TEC kinase” for short) in experiment [2] is given as “covalent modification of TEC kinase at Cys449; also recorded: reaction was complete”.

For `Cc1cccc(Nc2nc(Nc3cccc(NC(=O)/C=C/CN(C)C)c3)ncc2F)c1` [Compound I-4, (E)-4-(dimethylamino)-N-(3-(5-fluoro-4-(m-tolylamino)pyrimidin-2-ylamino)phenyl)but-2-enamide], the “BTK Inhibition Type” value in [1] is “irreversible”. Besides, in experiment [2], the “covalent modification of TEC kinase” value was “reaction was complete; also recorded: covalent modification of TEC kinase at Cys449”. Also, the “covalent modification of ErbB4 by mass spectrometry” value in experiment [3] was “covalent modification of ErbB4”.

`C=CC(=O)Nc1cccc(Nc2nc(Nc3ccccc3)ncc2C)c1` [Compound I-7, N-(3-(5-methyl-2-(phenylamino)pyrimidin-4-ylamino)phenyl) acrylamide]: the “BTK Inhibition Type” value in experiment [1] is listed as “irreversible”. In addition, the “positive shift of centroid mass of BTK” value in experiment [4] (intact BTK incubated 1 hr with 10× fold excess of compound) is “about 371.1 Da”. Besides, the “covalent modification of BTK by mass spectrometry” value in experiment [4] (intact BTK, 1 hr, 10× fold excess of compound) is reported as “complete modification; also recorded: covalent modification of BTK”. Besides, the “covalent modification of TEC kinase” value in experiment [2] is reported as “reaction was complete; also recorded: covalent modification of TEC kinase at Cys449”. Also, in [5], the “covalent modification of JAK3 by mass spectrometry” value is reported as “reaction was not entirely complete; also recorded: covalent modification of JAK-3 kinase at Cys909”. Besides, in [6], the “time BTK protein remains occupied after compound removal” value is listed as “over 8 hours”. Moreover, in experiment [7], the “concentration at which >50% of BTK is occupied” value was “A (greater than 1 nM)” and the “concentration at which >90% of BTK is occupied” value was “B (greater than 10 nM)”.

Take `Cc1cnc(Nc2cccc(S(N)(=O)=O)c2)nc1Nc1ccc2c(c1)CCN(C(=O)CCl)C2` [Compound I-11, 3-(4-(2-(2-chloroacetyl)-1,2,3,4-tetrahydroisoquinolin-6-ylamino)-5-methylpyrimidin-2-ylamino)benzenesulfonamide]: in experiment [3], the “covalent modification of ErbB4 by mass spectrometry” value was “covalent modification of ErbB4”. In addition, the “covalent modification of JAK3 by mass spectrometry” value in experiment [5] is “measurable modification”.

For the compound `C=CC(=O)Nc1cccc(Oc2nc(Nc3ccc(OC)nc3)ncc2C(=O)NC2CC2)c1` [Compound I-176, 4-(3-acrylamidophenoxy)-2-(6-methoxypyridin-3-ylamino)-pyrimidine-5-carboxylic acid cyclopropylamide], the IC50 in experiment [8] (Omnia assay, [BTK]=5 nM, read-out: BTK Inhibition) is under 0.01 µM; in experiment [9] it was 0.1 to 1 µM; in [10], 0.01 to 0.1 µM; in experiment [11], under 0.01 µM.

On to `CCC(=O)Nc1cccc(Nc2nc(Nc3ccccc3)ncc2C)c1` [I^R-7, N-(3-(5-methyl-2-(phenylamino)pyrimidin-4-ylamino)phenyl) propionamide], for which the “biochemical activity against BTK” value in experiment [8] was “biochemically inactive against BTK”.
